From ChEMBL document CHEMBL4765304, “Synthesis and anticancer activity of thiourea derivatives bearing a benzodioxole moiety with EGFR inhibitory activity, apoptosis assay and molecular docking study” (Eur J Med Chem, 2020)

How the values were obtained:
HCT-116 = assay: Cytotoxicity against human HCT-116 cells assessed as reduction in cell viability by SRB assay; assay type: functional, cell-based
HepG2 [1] = assay: Cytotoxicity against human HepG2 cells assessed as reduction in cell viability by SRB assay; assay type: functional, cell-based
WI-38 = assay: Cytotoxicity against human WI-38 cells assessed as reduction in cell viability by SRB assay; assay type: cell-based
MCF7 = assay: cells; conditions: Homo sapiens
Description: Cytotoxicity against human MCF7 cells assessed as reduction in cell viability by SRB assay

[2] = molecular target: Epidermal growth factor receptor (Homo sapiens, UniProt P00533); assay: Inhibition of EGFR (unknown origin) by FRET assay
Epidermal growth factor receptor, sequence (P00533 whole entry): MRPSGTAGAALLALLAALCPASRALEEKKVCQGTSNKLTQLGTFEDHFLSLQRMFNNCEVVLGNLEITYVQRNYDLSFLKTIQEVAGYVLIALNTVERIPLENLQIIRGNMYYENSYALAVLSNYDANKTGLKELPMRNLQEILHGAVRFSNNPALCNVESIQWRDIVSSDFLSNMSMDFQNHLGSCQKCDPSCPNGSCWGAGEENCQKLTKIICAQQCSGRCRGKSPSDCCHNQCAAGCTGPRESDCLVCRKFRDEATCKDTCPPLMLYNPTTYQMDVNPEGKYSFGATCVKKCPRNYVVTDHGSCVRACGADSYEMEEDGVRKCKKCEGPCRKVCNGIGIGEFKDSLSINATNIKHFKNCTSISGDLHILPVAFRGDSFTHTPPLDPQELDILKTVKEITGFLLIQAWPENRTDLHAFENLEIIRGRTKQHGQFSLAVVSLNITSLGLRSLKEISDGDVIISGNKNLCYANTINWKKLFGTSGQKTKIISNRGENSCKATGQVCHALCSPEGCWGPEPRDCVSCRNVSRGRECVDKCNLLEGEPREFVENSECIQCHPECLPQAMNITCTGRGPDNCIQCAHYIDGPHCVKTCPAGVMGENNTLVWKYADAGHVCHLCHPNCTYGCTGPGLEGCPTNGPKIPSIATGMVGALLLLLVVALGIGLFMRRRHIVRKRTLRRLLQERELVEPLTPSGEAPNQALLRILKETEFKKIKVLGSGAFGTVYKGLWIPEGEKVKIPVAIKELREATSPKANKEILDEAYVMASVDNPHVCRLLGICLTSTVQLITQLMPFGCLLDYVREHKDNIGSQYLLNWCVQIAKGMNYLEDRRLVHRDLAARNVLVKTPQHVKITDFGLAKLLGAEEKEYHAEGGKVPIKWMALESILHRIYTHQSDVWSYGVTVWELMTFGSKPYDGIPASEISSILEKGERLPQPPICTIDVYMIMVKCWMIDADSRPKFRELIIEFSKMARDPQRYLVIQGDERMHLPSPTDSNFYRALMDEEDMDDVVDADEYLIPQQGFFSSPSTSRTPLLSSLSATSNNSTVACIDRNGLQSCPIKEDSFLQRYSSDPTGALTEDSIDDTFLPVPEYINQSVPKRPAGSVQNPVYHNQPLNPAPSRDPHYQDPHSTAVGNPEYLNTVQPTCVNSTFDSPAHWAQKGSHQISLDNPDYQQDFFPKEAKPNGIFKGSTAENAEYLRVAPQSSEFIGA

HepG2 [3] = assay: Induction of apoptosis in human HepG2 cells assessed as early apoptotic cells at 5 uM incubated for 24 hrs by annexin V-FITC and PI staining based flow cytometry analysis (reference value: 0.87 %); assay type: functional
HepG2 [4] = assay: Induction of apoptosis in human HepG2 cells assessed as late apoptotic cells at 5 uM incubated for 24 hrs by annexin V-FITC and PI staining based flow cytometry analysis (reference value: 0.56 %); assay type: functional
HepG2 [5] = assay: Induction of apoptosis in human HepG2 cells assessed as necrotic cells at 5 uM incubated for 24 hrs by annexin V-FITC and PI staining based flow cytometry analysis (reference value: 0.43 %); assay type: functional
HepG2 [6] = assay: Induction of apoptosis in human HepG2 cells at 5 uM incubated for 24 hrs by annexin V-FITC and PI staining based flow cytometry analysis (reference value: 1.86 %); assay type: functional
HepG2 [7] = assay: Induction of cell cycle arrest in human HepG2 cells assessed as G0/G1 phase accumulation by flow cytometry analysis (reference value: 57.36 %); assay type: functional
HepG2 [8] = assay: Induction of cell cycle arrest in human HepG2 cells assessed as S phase accumulation by flow cytometry analysis (reference value: 36.22 %); assay type: functional
HepG2 [9] = assay: Induction of cell cycle arrest in human HepG2 cells assessed as G2/M phase accumulation by flow cytometry analysis (reference value: 6.32 %); assay type: functional
HepG2 [10] = assay: Induction of cell cycle arrest in human HepG2 cells assessed as preG1 phase accumulation by flow cytometry analysis (reference value: 1.86 %); assay type: functional
HepG2 [11] = assay: Induction of apoptosis in human HepG2 cells assessed as Bax level (reference value: 27.35 pg/ml); assay type: functional
HepG2 [12] = assay: Induction of apoptosis in human HepG2 cells assessed as Bcl2 level (reference value: 6.639 pg/ml); assay type: functional

SMILES	IC50 (HCT-116)	IC50 (HepG2 [1])	IC50 (WI-38)	IC50 (MCF7)	IC50 [2]	Activity (HepG2 [3])	Activity (HepG2 [4])	Activity (HepG2 [5])	Activity (HepG2 [6])	Activity (HepG2 [7])	Activity (HepG2 [8])	Activity (HepG2 [9])	Activity (HepG2 [10])	Activity (HepG2 [11])	Activity (HepG2 [12])
O=C1c2ccccc2C(=O)N1NC(=S)Nc1ccc2c(c1)OCO2	55.4 µM	59.1 µM	287 µM	68.9 µM											
O=S(=O)(NNC(=S)Nc1ccc2c(c1)OCO2)c1ccccc1	10 µM	11.7 µM	207 µM	17.6 µM											
NS(=O)(=O)c1ccc(NC(=S)Nc2ccc3c(c2)OCO3)cc1	86.3 µM	95.7 µM	325 µM	103 µM											
S=C(NNc1ccccc1)Nc1ccc2c(c1)OCO2	1.11 µM	1.74 µM	271 µM	7 µM	8.26 µM										
N=C(N)NS(=O)(=O)c1ccc(NC(=S)Nc2ccc3c(c2)OCO3)cc1	127 µM	132 µM	364 µM	160 µM											
Cc1c(NC(=S)Nc2ccc3c(c2)OCO3)c(=O)n(-c2ccccc2)n1C	3.16 µM	3.79 µM	176 µM	17 µM	0.358 µM	7.28%	10.62%	2.53%	20.43%	29.15%	30.21%	40.64%	20.43%	215.8 pg/mL	3.374 pg/mL
S=C(Nc1ccc2c(c1)OCO2)Nc1c2ccccc2nc2ccccc12	1.71 µM	2.14 µM	227 µM	4.63 µM	0.493 µM	6.14%	8.68%	2.43%	17.25%	37.12%	25.52%	37.36%	17.25%	201.7 pg/mL	4.147 pg/mL
S=C(NN=C(c1ccccc1)c1ccccc1)Nc1ccc2c(c1)OCO2	2.4 µM	5.76 µM	192 µM	10.8 µM	0.993 µM										
O=C(c1ccccc1)c1ccccc1NC(=S)Nc1ccc2c(c1)OCO2	171 µM	167 µM	435 µM	179 µM											
O=S(=O)(Nc1nccs1)c1ccc(NC(=S)Nc2ccc3c(c2)OCO3)cc1	2.53 µM	2.99 µM	201 µM	11.7 µM	1.62 µM										
O=C(NNC(=S)Nc1ccc2c(c1)OCO2)c1ccncc1	5.63 µM	11.6 µM	184 µM	25.2 µM											
O=S(=O)(Nc1ccccn1)c1ccc(NC(=S)Nc2ccc3c(c2)OCO3)cc1	4.78 µM	7.03 µM	189 µM	13.4 µM	1.89 µM										
